From patent publication US6716824B1, “Treatment of pancreatic adenocarcinoma by cytotoxic gene therapy” (priority 1999, dated 2004)

Legend:
F9 cells = test: Ganciclovir dose response curve, untransfected cells, MTS assay; format: cell-based, mouse; conditions: n=8
Method: (§1) Dose response curves with GCV for untransfected NIT-1 and F9 (control) cells were performed prior to cytoxicity studies with genetic constructs. NIT-1 cells were plated into a ninety-six well plate at a density of 5,000 cells per well and treated with GCV (0.1 to 2.5 μg/ml) to determine a dose response curve to GCV alone. The cells were treated daily for five days and cell viability was ascertained with an MTS assay. […] The GCV toxicity dose response curve for F9 cells resembled other cell lines (FIG. I B). […] Note that at concentrations of GCV 0.25 μg/ml and higher a significant decrease in cell survival is observed, n=8, *p<0.05, Unpaired Student t-test.

NIT-1 cells = test: as above; format: cell-based, mouse; conditions: untransfected NIT-1 cells
Method: as §1

A549 cells = test: as above; format: cell-based, human; conditions: five days
Method: (§2) PANC-1, CAPAN-1 MIA-1 and A549 cells were plated into a ninety-six well plate at a density of 5,000 cells per well and given between 0 to 500 μg/ml of GCV to determine a dose response curve to GCV alone. The cells were treated for five days and cell viability was ascertained with an MTS assay. Results were plotted on a graph as OD 490 nm vs. GCV concentration.

CAPAN-1 cells = test: as above; format: cell-based, human; conditions: untransfected CAPAN-1 cells
Method: as §2

MIA-1 cells = test: as above; format: cell-based, human; conditions: untransfected MIA-1 cells, five days
Method: as §2

PANC-1 cells = test: as above; format: cell-based, human; conditions: untransfected PANC-1 cells
Method: as §2

PANC-1 tumors = test: Treatment of human ductal pancreatic adenocarcinoma tumors in vivo, ICR/scid mice injected ip with PANC-1 cells; parameters: species or system mouse; conditions: PANC-1 tumors in ICR/scid mice, with GCV 40 mg/kg ip 7 days
Method: The effectiveness of RIPlacZ and RIP-tk gene constructs against PANC-1 was then studied in vivo using a SCID mouse model. SCID mice are immunodeficient and will not reject a human pancreatic cancer cell line. PANC-1 cells were injected intraperitoneally and tumors were visible by day 24. Once the model was established in the laboratory, the mice were treated with the gene therapy beginning at day 24 post-tumor-injection.
Six mice received seven days of PBS IP.
Three additional mice inoculated with PANC-1 cells received the RIPlacZ gene and were sacrificed thirty-six hours later.
Additional injected mice with tumors (n=3) received RIPlacZ and their tissues were fixed and stained with X-gal. Study endpoints consisted of monitoring tumor size and the presence of blue cells after X-gal staining.

NIT-1 cell tumors = test: Treatment of β-cell adenomas (insulinomas) in vivo, ICR/scid mice injected IP with NIT-1 cells; conditions: ICR/scid mice with NIT-1 cells; genes via liposomes IP day 31, GCV 40 mg/kg IP seven days
Method: To estimate tumor growth blood glucose was measured from the tail vein using a glucometer every other day.
Twenty-seven female ICR/scid mice, age 6-10 weeks old underwent intraperitoneal injections of 5×10^6 NIT-1 cells and nine female ICR/scid mice, age 6-10 weeks old underwent intraperitoneal injections of PBS. At day 31, the mice were randomized to receive either the RIP-tk gene, the RIPlacZ gene, or nothing. The RIP-lac-Z construct served both as a control and to localize gene expression. The genes were delivered via liposomes IP (liposomes provided by Dr. Nancy Smyth-Templeton Center for Gene Therapy and Department of Cell Biology, Baylor College of Medicine) and mixed as described (Smyth-Templeton N, et al., 15 Nature Biotechnology 647-652 (1997)). Six mice were randomized to receive the RIP-tk gene followed by seven days of GCV (40 mg/kg IP). Six mice were randomized to receive the RIP-lacZ gene followed by seven days of GVC (40 mg/kg IP). Six mice were randomized to receive PBS followed by seven days of GCV (40 mg/kg IP). Six mice that were inoculated with NIT-1 cells were randomized to receive seven days of PBS. […]
In another murine hypoglycemic tumor model, 5×10^6 NIT-1 cells (or PBS) were injected intraperitoneally (IP) into ICR/scid mice (n=12 per group). […] Blood glucose values, animal survival, and blue cells after X-gal staining were recorded.

Q: For Nc1nc(O)c2ncn(COC(CO)CO)c2n1 [GCV, Ganciclovir], which “GCV toxicity dose response (in words)” value (F9 cells) is on record?
A: resembles that of other published cell lines

Q: And the “maximum dose of GCV one can use to treat cells in culture” value (“maximum dose of GCV one can use” below) (NIT-1 cells)?
A: 0.20 µg/mL

Q: And the “GCV dosage significantly decreasing cell OD 490” value (A549 cells)?
A: greater than 50 μg/ml

Q: And the “maximum dose of GCV one can use” value (CAPAN-1 cells)?
A: 15 µg/mL

Q: What about the “GCV dosage significantly decreasing cell OD 490” value (CAPAN-1 cells; five days) of the same molecule?
A: greater than 20 μg/ml

Q: And the “GCV dosage significantly decreasing cell OD 490” value (MIA-1 cells)?
A: greater than 20 μg/ml

Q: And the “maximum dose of GCV one can use” value (PANC-1 cells)?
A: 20 µg/mL

Q: What about the “GCV dosage significantly decreasing cell OD 490” value (PANC-1 cells; five days, n=8) of the same molecule?
A: greater than 50 μg/ml

Q: What about the “tumor burden / tumor size (in words)” value (PANC-1 tumors) of the same molecule?
A: developed large peri-pancreatic intraperitoneal tumors

Q: What about the blood glucose levels (NIT-1 cell tumors) of the same molecule?
A: rapid decline in blood glucose levels
